Data: patent publication US20250304559A1, “Ether-Linked Antiviral Compounds” (Pfizer Inc., priority 2021, published 2025)
pEC50: −log10 of the molar value.

Experiments:
SARS-CoV-2 3CL protease = target: T1, SARS-CoV-2 3CL protease (Severe acute respiratory syndrome coronavirus 2, UniProt P0DTD1); test: SARS-CoV-2 Coronavirus 3C Protease FRET Assay; format: biochemical; details: Examples 14-78 and 114 (second head of Table 2); Morrison equation fit, 15 nM enzyme, 25 μM peptide substrate; read-out: Geometric Mean Ki (nM) IC50
T1 construct: measures the activity of full-length SARS-CoV-2 3CL protease

[1] = tested on: SARS-CoV-2 (USA_WA1/2020); test: Antiviral Activity from SARS-CoV-2 Infection (cytopathic effect, Cell Titer-Glo); format: cell-based; details: Severe acute respiratory syndrome coronavirus 2, Vero C1008, 72 h, VeroE6 cells enriched for hACE2, MOI 0.002, 3-day incubation; tested alone or with P-gp inhibitor CP-100356 2 μM (table does not say which); read-out: Geometric Mean EC50

Row | SMILES | Ki (SARS-CoV-2 3CL protease) | pEC50 [1]
1 | CC(C)[C@H](NC(=O)C(F)(F)F)C(=O)N1C[C@H]2[C@@H]([C@H]1C(=O)N[C@@H](C[C@@H]1CC(O)NC1=O)C(=O)COc1ccc(F)cc1F)C2(C)C (stereo partly drawn) [Example 39, (1R,2S,5S)-N-{(2S)-4-(2,4-difluorophenoxy)-1-[(3R)-5-hydroxy-2-oxopyrrolidin-3-yl]-3-oxobutan-2-yl}-6,6-dimethyl-3-[N-(trifluoroacetyl)-L-valyl]-3-azabicyclo[3.1.0]hexane-2-carboxamide] | 3.7 nM | 6.51
2 | CC(C)[C@H](NS(=O)(=O)C(F)(F)F)C(=O)N1C[C@H]2[C@@H]([C@H]1C(=O)N[C@@H](C[C@@H]1CCNC1=O)C(=O)COc1cccc(Cl)c1)C2(C)C [Example 40, (1R,2S,5S)-N-{(2S)-4-(3-chlorophenoxy)-3-oxo-1-[(3S)-2-oxopyrrolidin-3-yl]butan-2-yl}-6,6-dimethyl-3-[N-(trifluoromethanesulfonyl)-L-valyl]-3-azabicyclo[3.1.0]hexane-2-carboxamide] | 4.22 nM | 6.95
3 | CC(C)[C@H](NC(=O)C(F)(F)F)C(=O)N1C[C@H]2[C@@H]([C@H]1C(=O)N[C@@H](C[C@@H]1CC(=O)NC1=O)C(=O)COc1ccc(F)cc1F)C2(C)C [Example 42, (1R,2S,5S)-N-{(2S)-4-(2,4-difluorophenoxy)-1-[(3R)-2,5-dioxopyrrolidin-3-yl]-3-oxobutan-2-yl}-6,6-dimethyl-3-[N-(trifluoroacetyl)-L-valyl]-3-azabicyclo[3.1.0]hexane-2-carboxamide] | 7.05 nM | 6.52
4 | CC(C)(C)[C@H](NS(=O)(=O)C(F)(F)F)C(=O)N1C[C@H]2[C@@H]([C@H]1C(=O)N[C@@H](C[C@@H]1CC(=O)NC1=O)C(=O)COc1ccc(F)cc1F)C2(C)C [Example 44, (1R,2S,5S)-N-{(2S)-4-(2,4-difluorophenoxy)-1-[(3R)-2,5-dioxopyrrolidin-3-yl]-3-oxobutan-2-yl}-6,6-dimethyl-3-[3-methyl-N-(trifluoromethanesulfonyl)-L-valyl]-3-azabicyclo[3.1.0]hexane-2-carboxamide] | 8.95 nM | 6.39
5 | CC(C)[C@H](NC(=O)C(F)(F)F)C(=O)N1C[C@H]2[C@@H]([C@H]1C(=O)N[C@@H](C[C@@H]1CCNC1=O)C(=O)COc1ccccc1F)C2(C)C [Example 47, (1R,2S,5S)-N-{(2S)-4-(2-fluorophenoxy)-3-oxo-1-[(3S)-2-oxopyrrolidin-3-yl]butan-2-yl}-6,6-dimethyl-3-[N-(trifluoroacetyl)-L-valyl]-3-azabicyclo[3.1.0]hexane-2-carboxamide] | 8.58 nM | 7.22
6 | CC(C)[C@H](NC(=O)C(F)(F)F)C(=O)N1C[C@H]2[C@@H]([C@H]1C(=O)N[C@@H](C[C@@H]1CCNC1=O)C(=O)COc1ccc(F)c(F)c1)C2(C)C [Example 48, (1R,2S,5S)-N-{(2S)-4-(3,4-difluorophenoxy)-3-oxo-1-[(3S)-2-oxopyrrolidin-3-yl]butan-2-yl}-6,6-dimethyl-3-[N-(trifluoroacetyl)-L-valyl]-3-azabicyclo[3.1.0]hexane-2-carboxamide] | 7.87 nM | 7.35
7 | CC(C)[C@H](NS(=O)(=O)C(F)(F)F)C(=O)N1C[C@H]2[C@@H]([C@H]1C(=O)N[C@@H](C[C@@H]1CC(=O)NC1=O)C(=O)COc1ccc(F)cc1F)C2(C)C [Example 49, (1R,2S,5S)-N-{(2S)-4-(2,4-difluorophenoxy)-1-[(3R)-2,5-dioxopyrrolidin-3-yl]-3-oxobutan-2-yl}-6,6-dimethyl-3-[N-(trifluoromethanesulfonyl)-L-valyl]-3-azabicyclo[3.1.0]hexane-2-carboxamide] | 9.93 nM | 5.70
8 | CC(C)[C@H](NC(=O)C(F)(F)F)C(=O)N1C[C@H]2[C@@H]([C@H]1C(=O)N[C@@H](C[C@@H]1CCNC1=O)C(=O)COc1cccc(Cl)c1)C2(C)C [Example 50, (1R,2S,5S)-N-{(2S)-4-(3-chlorophenoxy)-3-oxo-1-[(3S)-2-oxopyrrolidin-3-yl]butan-2-yl}-6,6-dimethyl-3-[N-(trifluoroacetyl)-L-valyl]-3-azabicyclo[3.1.0]hexane-2-carboxamide] | 10.7 nM | 7.12
9 | Cc1ccc2c(OCC(=O)[C@H](C[C@@H]3CCNC3=O)NC(=O)[C@@H]3[C@@H]4[C@H](CN3C(=O)[C@@H](NC(=O)C(F)(F)F)C(C)C)C4(C)C)noc2c1 [Example 51, (1R,2S,5S)-6,6-dimethyl-N-{(2S)-4-[(6-methyl-1,2-benzoxazol-3-yl)oxy]-3-oxo-1-[(3S)-2-oxopyrrolidin-3-yl]butan-2-yl}-3-[N-(trifluoroacetyl)-L-valyl]-3-azabicyclo[3.1.0]hexane-2-carboxamide] | 10.5 nM | 7.03
10 | CC(C)[C@H](NC(=O)C(F)(F)F)C(=O)N1C[C@H]2[C@@H]([C@H]1C(=O)N[C@@H](C[C@@H]1CCNC1=O)C(=O)COc1ccc(F)cc1)C2(C)C [Example 52, (1R,2S,5S)-N-{(2S)-4-(4-fluorophenoxy)-3-oxo-1-[(3S)-2-oxopyrrolidin-3-yl]butan-2-yl}-6,6-dimethyl-3-[N-(trifluoroacetyl)-L-valyl]-3-azabicyclo[3.1.0]hexane-2-carboxamide] | 10.5 nM | 7.13
11 | CC(C)[C@H](NC(=O)C(F)(F)F)C(=O)N1C[C@H]2[C@@H]([C@H]1C(=O)N[C@@H](C[C@@H]1CCNC1=O)C(=O)COc1cc(F)ccc1F)C2(C)C [Example 53, (1R,2S,5S)-N-{(2S)-4-(2,5-difluorophenoxy)-3-oxo-1-[(3S)-2-oxopyrrolidin-3-yl]butan-2-yl}-6,6-dimethyl-3-[N-(trifluoroacetyl)-L-valyl]-3-azabicyclo[3.1.0]hexane-2-carboxamide] | 12 nM | 7.14
12 | CC(C)[C@H](NS(=O)(=O)C(F)(F)F)C(=O)N1C[C@H]2[C@@H]([C@H]1C(=O)N[C@@H](C[C@@H]1CC(O)NC1=O)C(=O)COc1ccc(F)cc1F)C2(C)C (stereo partly drawn) [Example 54, (1R,2S,5S)-N-{(2S)-4-(2,4-difluorophenoxy)-1-[(3R)-5-hydroxy-2-oxopyrrolidin-3-yl]-3-oxobutan-2-yl}-6,6-dimethyl-3-[N-(trifluoromethanesulfonyl)-L-valyl]-3-azabicyclo[3.1.0]hexane-2-carboxamide] | 11.3 nM | 5.65
13 | CC(C)[C@H](NC(=O)C(F)(F)F)C(=O)N1C[C@H]2[C@@H]([C@H]1C(=O)N[C@@H](C[C@@H]1CCNC1=O)C(=O)COc1nc(C(F)(F)F)nn1C)C2(C)C [Example 55, (1R,2S,5S)-6,6-dimethyl-N-{(2S)-4-{[1-methyl-3-(trifluoromethyl)-1H-1,2,4-triazol-5-yl]oxy}-3-oxo-1-[(3S)-2-oxopyrrolidin-3-yl]butan-2-yl}-3-[N-(trifluoroacetyl)-L-valyl]-3-azabicyclo[3.1.0]hexane-2-carboxamide] | 11.6 nM | 6.19
14 | CC(C)c1cccc(OCC(=O)[C@H](C[C@@H]2CCNC2=O)NC(=O)[C@@H]2[C@@H]3[C@H](CN2C(=O)[C@@H](NC(=O)C(F)(F)F)C(C)C)C3(C)C)c1 [Example 56, (1R,2S,5S)-6,6-dimethyl-N-{(2S)-3-oxo-1-[(3S)-2-oxopyrrolidin-3-yl]-4-[3-(propan-2-yl)phenoxy]butan-2-yl}-3-[N-(trifluoroacetyl)-L-valyl]-3-azabicyclo[3.1.0]hexane-2-carboxamide] | 14.4 nM | 6.92
15 | CC(C)[C@H](NC(=O)C(F)(F)F)C(=O)N1C[C@H]2[C@@H]([C@H]1C(=O)N[C@@H](C[C@@H]1CCNC1=O)C(=O)COc1cc(F)cc(F)c1)C2(C)C [Example 58, (1R,2S,5S)-N-{(2S)-4-(3,5-difluorophenoxy)-3-oxo-1-[(3S)-2-oxopyrrolidin-3-yl]butan-2-yl}-6,6-dimethyl-3-[N-(trifluoroacetyl)-L-valyl]-3-azabicyclo[3.1.0]hexane-2-carboxamide] | 17.1 nM | 7.05
16 | Cc1cc(OCC(=O)[C@H](C[C@@H]2CCNC2=O)NC(=O)[C@@H]2[C@@H]3[C@H](CN2C(=O)[C@@H](NC(=O)C(F)(F)F)C(C)C)C3(C)C)no1 [Example 61, (1R,2S,5S)-6,6-dimethyl-N-{(2S)-4-[(5-methyl-1,2-oxazol-3-yl)oxy]-3-oxo-1-[(3S)-2-oxopyrrolidin-3-yl]butan-2-yl}-3-[N-(trifluoroacetyl)-L-valyl]-3-azabicyclo[3.1.0]hexane-2-carboxamide] | 31.7 nM | 5.74
17 | CC(C)[C@H](NC(=O)C(F)(F)F)C(=O)N1C[C@H]2[C@@H]([C@H]1C(=O)N[C@@H](C[C@@H]1CCNC1=O)C(=O)COc1cnsn1)C2(C)C [Example 62, (1R,2S,5S)-6,6-dimethyl-N-{(2S)-3-oxo-1-[(3S)-2-oxopyrrolidin-3-yl]-4-[(1,2,5-thiadiazol-3-yl)oxy]butan-2-yl}-3-[N-(trifluoroacetyl)-L-valyl]-3-azabicyclo[3.1.0]hexane-2-carboxamide] | 55.7 nM | 5.73
18 | CC(C)[C@H](NC(=O)C(F)(F)F)C(=O)N1C[C@H]2[C@@H]([C@H]1C(=O)N[C@@H](C[C@@H]1CCNC1=O)C(=O)COc1ncnn1-c1ccccc1)C2(C)C [Example 64, (1R,2S,5S)-6,6-dimethyl-N-{(2S)-3-oxo-1-[(3S)-2-oxopyrrolidin-3-yl]-4-[(1-phenyl-1H-1,2,4-triazol-5-yl)oxy]butan-2-yl}-3-[N-(trifluoroacetyl)-L-valyl]-3-azabicyclo[3.1.0]hexane-2-carboxamide] | 62.2 nM | 5.27
19 | CCc1c(OCC(=O)[C@H](C[C@@H]2CCNC2=O)NC(=O)[C@@H]2[C@@H]3[C@H](CN2C(=O)[C@@H](NC(=O)C(F)(F)F)C(C)C)C3(C)C)noc1C [Example 67, (1R,2S,5S)-N-{(2S)-4-[(4-ethyl-5-methyl-1,2-oxazol-3-yl)oxy]-3-oxo-1-[(3S)-2-oxopyrrolidin-3-yl]butan-2-yl}-6,6-dimethyl-3-[N-(trifluoroacetyl)-L-valyl]-3-azabicyclo[3.1.0]hexane-2-carboxamide] | 107 nM | 5.76
